# Earlier results as cited in patent US9663529B2, “Tricyclic pyrido-carboxamide derivatives as rock inhibitors” (BRISTOL-MYERS SQUIBB COMPANY, priority 2013, dated 2017).
# Key:
# [1] = system: congestive heart failure in Dahl salt-sensitive rats; conditions: rat, in vivo; cited from earlier work
# [2] = system: rat models of hypertension; conditions: cited from earlier work
# [3] = system: neointimal formation; conditions: rats, balloon injury model; cited from earlier work
compound,measurement,setting,value
"C[C@@H](N)[C@H]1CC[C@H](C(=O)Nc2ccncc2)CC1 [Example Y-27632, Y-27632]","ventricular hypertrophy, fibrosis and function",[1],"improve ventricular hypertrophy, fibrosis and function"
same,blood pressure in control rats,[2]; control rats,only a minor effect on blood pressure
same,blood pressure,"[2]; spontaneously hypertensive rat, renal hypertensive rat and deoxycortisone acetate salt hypertensive rat models",significantly decrease blood pressure
same,neointimal formation,[3],inhibited neointimal formation
